This note sets out measurements from patent US20260218132A1, “METHODS AND MATERIALS FOR GENERATING STEM CELL-DERIVED ENDOCRINE CELL TYPES” (Mayo Foundation for Medical Education and Research, priority 2023, published 2026).

Data set [1] relates to pre-delta cells. Nature of the data set: High-content small molecule screen and dose response on pre-delta cells (step 6). The following applies: for cell loss at higher concentration: dose response, step 6.
Experimental: Clusters were collected from either Stage 3, or Stage 4, or Stage 5 completed flasks, washed three times with PBS, dispersed into single cells using TrypLE Express for 10 minutes, and quenched using S3 media. […] Chemical compounds were then introduced to each well and incubated at 37° C. in a humidified atmosphere. The fresh media and compounds were added every other day by replacing the spent media. After 5 days for Stage 3 completed cells, 4 days for Stage 4 completed cells, and 7 days for Stage 5 completed cells of incubation, the cells were fixed with 4% PFA and stained for insulin, glucagon, and somatostatin as described herein. Stained cells were imaged with the Cellomics Scan Version 6.6.0 (Thermo Scientific HCS Studio). Twenty-five view fields were captured for each well and analyzed. The percentage of cells expressing only somatostatin was calculated for each well.
Thus, to further increase the percentage of monohormonal SC-δ cells, a small molecule screen on pre-delta cells was conducted, as described earlier with a similar set of criteria (FIG. 2D).
Data set [2] relates to delta progenitor cells. The data set is described as follows: High-content small molecule screen on delta progenitor cells (step 5). The data set is classed as cell-based, human. Particulars: library screened at 20 μM, 2 μM and 0.2 μM. As for the experimental part: (§1) Compounds that increased the percentage of Pre-Delta (PD) cells (positive for somatostatin (SST) while negative for both insulin (INS) and glucagon (GCG)) and reduced the percentage of polyhormonal cells were considered as hits. […] The library was screened at 20 μM, 2 μM, and 0.2 μM final concentrations (FIG. 22).

The next data set relates to PP cells. Nature of the data set: PP cells treated with FGF receptor inhibitors along with RA, somatostatin expressing cells. Type of data set: cell-based, human. The following applies: control having only RA, six-well plates, 5 days. On the procedure:
(§2) The cell clusters collected during the course of differentiation at different stages were dissociated into single cell suspension by treating with TrypLE Express at 37° C. for 10 minutes after washing twice with phosphate buffered saline (PBS). The enzyme activity was quenched by adding equal volume of S3 media to prevent further degradation, and dispersed single cells were washed with PBS, fixed in 4% paraformaldehyde (PFA) for 20 minutes and subsequently stored at 4° C. until further use. On the day of staining, the cells were passed through 40 μm filter and washed twice with PBS before permeabilizing in block solution (PBS+0.1% Triton X-100+5% donkey serum; PBST). […] The stained cells were acquired in Attune flow cytometer and were analyzed using FlowJo v10 software. […]
To further explore the specificity of inhibition of FGF receptors, PP cells were treated with five additional FGF receptor inhibitors (AZD4547, erdafitinib, roblitinib, pemigatinib, or BGJ398) along with RA (FIG. 7). […] To find an effective concentration of these compounds, differentiated PP cells were transferred to six-well plates and treated with either control having only RA or each FGF receptor inhibitors along with RA for 5 days and quantified the percentage of somatostatin expressing cells.

Data set [3] deals with pre-delta cells. Nature of the data set: Differentiation of pre-delta cells to SCδ cells (stage 6), flow cytometry and immunohistochemistry. Type of data set: cell-based, human. As for the experimental part: (§3) The differentiation was carried out in six stages. The generation of PP1 cells from HUES8 cells was carried out using prior protocols with modifications (see, e.g., Pagliuca et al., Cell, 159:428-439 (2014); and Peterson et al., Nat. Commun., 11:Article No. 2241 (14 pages) (2020)); and the delta cell differentiation was further carried out using PP1 cells. The media changes for differentiation were as follows:
(§4) The cell clusters collected during the course of differentiation at different stages were dissociated into single cell suspension by treating with TrypLE Express at 37° C. for 10 minutes after washing twice with phosphate buffered saline (PBS). The enzyme activity was quenched by adding equal volume of S3 media to prevent further degradation, and dispersed single cells were washed with PBS, fixed in 4% paraformaldehyde (PFA) for 20 minutes and subsequently stored at 4° C. until further use. On the day of staining, the cells were passed through 40 μm filter and washed twice with PBS before permeabilizing in block solution (PBS+0.1% Triton X-100+5% donkey serum; PBST). After 40 minutes of blocking, the cells were incubated with primary antibodies in block solution for 1 hour at room temperature (RT), washed twice with PBST, and then incubated with appropriate secondary antibodies in block solution for 1 hour at RT. Finally, cells were washed twice with PBST and resuspended in PBS at a concentration of 1×10^6 cells/mL. The stained cells were acquired in Attune flow cytometer and were analyzed using FlowJo v10 software. The Pdx1 (R&D Systems, AF2419) antibody was used at 1:250, Nkx6.1 (Iowa Hybridoma Bank, F55A12) at 1:100, insulin (Iowa Hybridoma Bank, GN-ID4) at 1:250, glucagon (LSBio, LS-B10219) at 1:25,000, and somatostatin (Santa Cruz Biotechnologies, SC-25262) at a dilution of 1:8000. The secondary antibodies are either donkey-anti-goat-Alexa Fluor 488 (Invitrogen, A-11055, 1:1000), donkey-anti-rabbit-Alexa Fluor 488 (Invitrogen, A-21206, 1:1000), donkey-anti-rat-Alexa Fluor 594 (Invitrogen, A-21209, 1:1000), or donkey-anti-mouse-Alexa Fluor 647 (Invitrogen, A-31571 1:1000).
The differentiated cell clusters or human islets were fixed in 4% PFA and stored at 4° C. until further use. The clusters were washed three times with PBS, set in Histogel (Thermo), embedded in paraffin, and sectioned at 4 μm for histological analysis. Antigen retrieval was performed in citrate buffer (pH 6.5) for 1 hour in boiling water bath on deparaffinized and rehydrated sections, and then allowed to cool for 40 minutes. Sections were then permeabilized and blocked in block solution (PBS+0.1% Triton X-100+5% donkey serum; PBST) for 40 minutes. Primary antibodies were added at appropriate dilutions and incubated overnight at 4° C. On the following day, secondary antibodies were added for 1 hour at room temperature. After thorough rinse with PBST, sections were mounted in Vectashield (Vector Laboratories), covered with coverslips, and sealed with nail polish. The sections were visualized using Zeiss microscope. The secondary antibodies are either donkey-anti-goat-Alexa Fluor 488 (Invitrogen, A-11055, 1:1000), donkey-anti-rabbit-Alexa Fluor 488 (Invitrogen, A-21206, 1:1000), donkey-anti-rat-Alexa Fluor 594 (Invitrogen, A-21209, 1:1000), or donkey-anti-mouse-Alexa Fluor 647 (Invitrogen, A-31571 1:1000).
For orientation: Flow cytometry measures light scatter and fluorescence of single cells or particles in a stream.

In a further data set the test system is PDX1^+/NKX6.1^− PP cells. Nature of the data set: Differentiation of PP cells to delta progenitor cells (stage 4), hormone expression by flow cytometry. Type of data set: cell-based, human. The following applies: stage 3 cells treated independently or in combination for 5 days. As for the experimental part:
After 72 hours of culture in mTeSR, the clusters of HUES8 cells were allowed to settle at the bottom of the spinner flask, and spent media was replaced with stage specific differentiation media containing specific growth factors and small molecules.
as §3
as §2, with “use.” for “use. On the day of staining, the cells were passed through 40 μm filter and washed twice with PBS before permeabilizing in block solution (PBS+0.1% Triton X-100+5% donkey serum; PBST).”

The subject of data set [4] is delta progenitor cells. Nature of the data set: Differentiation of delta progenitor cells to pre-delta cells (stage 5), flow cytometry. The data set is classed as cell-based, human. As for the experimental part:
as §3, §4, §1

As for `CC(C)[C@H]1C(=O)N[C@H](CO)Cc2c[nH]c3cccc(c23)N1C` [indolactam V, (10S,13S)-13-(hydroxymethyl)-9-methyl-10-propan-2-yl-3,9,12-triazatricyclo[6.6.1.0^4,15]pentadeca-1,4(15),5,7-tetraen-11-one], in the data set on pre-delta cells [1] (FIG. 2F, FIG. 24B), the “dose response, monohormonal SCδ cells” value was “dose dependent increase in monohormonal SCδ cells”. Moreover, in the data set on pre-delta cells [1], the “cell loss at higher concentration” value is “severe cell loss”. Also, the “screen outcome, step 6 (increase of monohormonal SC-δ cells)” value in the data set on pre-delta cells [1] (library screened at 20 μM, 2 μM and 0.2 μM) is “primary hits”. In the data set on delta progenitor cells [2], the “screen outcome, step 5 (increase of pre-delta cells, fewer polyhormonal cells)” value is “primary hits”.
As for `CC1=C(/C=C/C(C)=C/C=C/C(C)=C/C(=O)O)C(C)(C)CCC1` [RA, retinoic acid], the somatostatin expressing cells with PP cells is on record as 2.53±0.15%.
As for `c1ccc2c(-c3cnn4cc(-c5ccc(N6CCNCC6)cc5)cnc34)ccnc2c1` [LDN193189, 4-[6-(4-piperazin-1-ylphenyl)pyrazolo[1,5-a]pyrimidin-3-yl]quinolin], the “screen outcome, step 5 (increase of pre-delta cells, fewer polyhormonal cells)” value in the data set on delta progenitor cells [2] is listed as “primary hits”.
Take `C=C[C@@]1(C)CC(=O)[C@]2(O)[C@@]3(C)[C@@H](O)CCC(C)(C)[C@@H]3[C@H](O)[C@H](OC(C)=O)[C@@]2(C)O1` [forskolin, [(3R,4aR,5S,6S,6aS,10S,10aR,10bS)-3-ethenyl-6,10,10b-trihydroxy-3,4a,7,7,10a-pentamethyl-1-oxo-5,6,6a,8,9,10-hexahydro-2H-benzo[f]chromen-5-yl]acetate]: the “cell loss at higher concentration” value in the data set on pre-delta cells [1] is recorded as “severe cell loss”. This molecule displayed an SCδ cells with pre-delta cells [3] (200 μM for 7 days, stage 6, flow cytometry) of 17.51±0.88%. The “percentage of SC-δ cells after long-term culture” value in the data set with pre-delta cells [3] (forskolin withdrawn from S3 media, cultured for additional two weeks) is 31.15±1.30%. In the data set with pre-delta cells [3] (stage 6, flow cytometry), the SC-α cells stood at 0.79±0.14%, the “SST^+GCG^+INS^+ cells” value is recorded as 11.02±0.60% and the “SST^−GCG^+INS^+ cells” value is on record as 2.36±0.36%.
Take `C[C@H](NC(=O)Cc1cc(F)cc(F)c1)C(=O)N[C@@H]1C(=O)N(C)c2ccccc2-c2ccccc21` [γ-secretase inhibitor XX, N-[(1S)-2-[[(7S)-6,7-dihydro-5-methyl-6-oxo-5H-dibenz[b,d]azepin-7-yl]amino]-1-methyl-2-oxoethyl]-3,5-difluoro-benzeneacetamide]: in the data set with delta progenitor cells [2], the “screen outcome, step 5 (increase of pre-delta cells, fewer polyhormonal cells)” value is reported as “primary hits”.
As for `CCN(CC)CCCCNc1ncc2cc(-c3cc(OC)cc(OC)c3)c(NC(=O)NC(C)(C)C)nc2n1` [PD173074, 1-tert-butyl-3-[2-[4-(diethylamino)butylamino]-6-(3,5-dimethoxyphenyl)pyrido[2,3-d]pyrimidin-7-yl]urea], the “somatostatin expression in PP cells” value in the data set on PDX1^+/NKX6.1^− PP cells is “induced a small population of somatostatin expression”.
Regarding `Cc1cccc(-c2[nH]ncc2-c2ccc3ncccc3n2)n1` [Alk5 inhibitor II, 2-[5-(6-methylpyridin-2-yl)-1H-pyrazol-4-yl]-1,5-naphthyridine], in the data set on delta progenitor cells [4] (Indolactam V and γ-secretase inhibitor XX without Alk5inh II, FIG. 24C), the “monohormonal SC-delta cells on omission of the compound from stage 5” value is reported as “significant reduction in monohormonal SC-delta cells”. The “resulting cells express somatostatin” value with delta progenitor cells [4] (delta progenitor cells treated with Alk5i II, FIG. 1D) was “approximately 8%”. In addition, in the data set with delta progenitor cells [4] (stage 5, flow cytometry), the SC-α cells population was 14.78±1.72%, the SC-β cells population stood at 5.20±0.72%, the “SST^+GCG^+INS^+ cells” value is on record as 15.46±15.07% and the “SST^−GCG^−INS^− cells” value is 20.97±7.59%. In the data set on delta progenitor cells [4] (stage 5, flow cytometry), the polyhormonal cells came to 54.88±6.74%; the “pre-delta cells (somatostatin positive, insulin and glucagon negative)” value was determined as 4.11±1.12%.
